Measurements from ChEMBL document CHEMBL4406913, “INCB050465 (Parsaclisib), a Novel Next-Generation Inhibitor of Phosphoinositide 3-Kinase Delta (PI3Kδ)” (ACS Med Chem Lett, 2019).
pIC50: −log10 of the molar value.

Columns and labels:
[1] = Fractional unbound in human plasma; format: ADME, cell-free
[2] = Tmax in rat at 4 mg/kg, po measured for 24 hrs by LC-MS/MS analysis; format: ADME, organism-based; conditions: in vivo
[3] = Clearance in cynomolgus monkey at 2 mg/kg, iv measured for 24 hrs by LC-MS/MS analysis; format: ADME, organism-based, Macaca fascicularis; conditions: in vivo
[4] = Oral bioavailability in cynomolgus monkey at 4 mg/kg measured for 24 hrs by LC-MS/MS analysis; format: ADME, organism-based, Macaca fascicularis; conditions: in vivo
[5] = target: Phosphatidylinositol 4,5-bisphosphate 3-kinase catalytic subunit alpha isoform (Homo sapiens, UniProt P42336); assay: Inhibition of PI3Kalpha (unknown origin) using D-myophosphatidylinositol 4,5-bisphosphate as substrate incubated for 120 mins by [gamma-33P]-ATP based scintillation counting method
Sequence of Phosphatidylinositol 4,5-bisphosphate 3-kinase catalytic subunit alpha isoform (P42336 whole entry, canonical isoform): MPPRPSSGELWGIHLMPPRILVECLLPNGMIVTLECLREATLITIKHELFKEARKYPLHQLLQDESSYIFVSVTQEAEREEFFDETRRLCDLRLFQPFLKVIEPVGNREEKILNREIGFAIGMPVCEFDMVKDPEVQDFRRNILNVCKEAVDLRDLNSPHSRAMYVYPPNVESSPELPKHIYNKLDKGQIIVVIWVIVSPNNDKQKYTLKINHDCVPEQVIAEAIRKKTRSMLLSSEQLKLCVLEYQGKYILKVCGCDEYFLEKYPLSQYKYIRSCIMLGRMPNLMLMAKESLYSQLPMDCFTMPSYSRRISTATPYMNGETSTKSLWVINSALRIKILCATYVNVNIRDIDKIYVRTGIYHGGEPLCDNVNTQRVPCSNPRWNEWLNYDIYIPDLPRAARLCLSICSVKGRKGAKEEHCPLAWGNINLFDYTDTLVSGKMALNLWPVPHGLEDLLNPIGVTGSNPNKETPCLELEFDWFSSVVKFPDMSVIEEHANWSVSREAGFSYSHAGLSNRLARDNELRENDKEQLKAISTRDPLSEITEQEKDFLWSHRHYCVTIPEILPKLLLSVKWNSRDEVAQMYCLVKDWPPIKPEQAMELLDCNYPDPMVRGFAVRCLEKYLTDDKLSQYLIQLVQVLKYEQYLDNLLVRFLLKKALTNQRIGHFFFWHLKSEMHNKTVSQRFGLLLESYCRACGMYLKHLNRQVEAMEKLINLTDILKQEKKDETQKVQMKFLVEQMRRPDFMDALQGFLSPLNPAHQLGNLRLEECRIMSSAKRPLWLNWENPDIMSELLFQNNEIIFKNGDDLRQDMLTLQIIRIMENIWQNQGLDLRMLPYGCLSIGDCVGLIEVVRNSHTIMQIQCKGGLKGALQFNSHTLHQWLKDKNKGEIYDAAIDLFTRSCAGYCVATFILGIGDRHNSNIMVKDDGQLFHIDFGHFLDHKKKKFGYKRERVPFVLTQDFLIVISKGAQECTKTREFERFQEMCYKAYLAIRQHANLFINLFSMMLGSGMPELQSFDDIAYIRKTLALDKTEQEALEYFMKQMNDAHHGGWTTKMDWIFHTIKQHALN

[6] = Permeability across apical to basolateral side in human Caco2 cells at 50 uM incubated for 120 mins by LC/MS analysis; format: ADME, cell-based; conditions: Caco-2, read-out: permeability
[7] = Terminal half life in cynomolgus monkey at 2 mg/kg, iv measured for 24 hrs by LC-MS/MS analysis; format: ADME, organism-based, Macaca fascicularis; conditions: in vivo, read-out: beta t1/2 (converted)
Cytochrome P450 3A4 = Cytochrome P450 3A4 (Homo sapiens, UniProt P08684); assay: Inhibition of CYP3A4 in human liver microsomes at 0.1 to 25 uM using testosterone as substrate by LC/MS analysis; format: ADME
Sequence of Cytochrome P450 3A4 (P08684 whole entry): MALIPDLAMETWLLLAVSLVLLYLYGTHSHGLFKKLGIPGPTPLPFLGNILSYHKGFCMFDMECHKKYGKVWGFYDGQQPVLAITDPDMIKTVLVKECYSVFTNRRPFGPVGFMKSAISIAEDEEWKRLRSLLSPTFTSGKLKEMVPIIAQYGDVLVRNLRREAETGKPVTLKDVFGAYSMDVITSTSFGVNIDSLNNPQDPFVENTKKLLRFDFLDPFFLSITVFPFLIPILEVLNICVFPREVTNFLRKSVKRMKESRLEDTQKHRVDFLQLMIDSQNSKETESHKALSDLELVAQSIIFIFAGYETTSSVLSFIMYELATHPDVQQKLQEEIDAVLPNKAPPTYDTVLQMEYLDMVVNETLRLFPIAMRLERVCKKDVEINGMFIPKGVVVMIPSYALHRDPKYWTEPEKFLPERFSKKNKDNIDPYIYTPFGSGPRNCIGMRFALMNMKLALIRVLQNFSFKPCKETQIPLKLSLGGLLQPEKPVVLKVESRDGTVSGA

[8] = target: Voltage-gated inwardly rectifying potassium channel KCNH2 (Homo sapiens, UniProt Q12809); assay: Inhibition of human ERG expressed in HEK293 cells by voltage patch clamp assay; format: cell-based
Sequence of Voltage-gated inwardly rectifying potassium channel KCNH2 (Q12809 whole entry): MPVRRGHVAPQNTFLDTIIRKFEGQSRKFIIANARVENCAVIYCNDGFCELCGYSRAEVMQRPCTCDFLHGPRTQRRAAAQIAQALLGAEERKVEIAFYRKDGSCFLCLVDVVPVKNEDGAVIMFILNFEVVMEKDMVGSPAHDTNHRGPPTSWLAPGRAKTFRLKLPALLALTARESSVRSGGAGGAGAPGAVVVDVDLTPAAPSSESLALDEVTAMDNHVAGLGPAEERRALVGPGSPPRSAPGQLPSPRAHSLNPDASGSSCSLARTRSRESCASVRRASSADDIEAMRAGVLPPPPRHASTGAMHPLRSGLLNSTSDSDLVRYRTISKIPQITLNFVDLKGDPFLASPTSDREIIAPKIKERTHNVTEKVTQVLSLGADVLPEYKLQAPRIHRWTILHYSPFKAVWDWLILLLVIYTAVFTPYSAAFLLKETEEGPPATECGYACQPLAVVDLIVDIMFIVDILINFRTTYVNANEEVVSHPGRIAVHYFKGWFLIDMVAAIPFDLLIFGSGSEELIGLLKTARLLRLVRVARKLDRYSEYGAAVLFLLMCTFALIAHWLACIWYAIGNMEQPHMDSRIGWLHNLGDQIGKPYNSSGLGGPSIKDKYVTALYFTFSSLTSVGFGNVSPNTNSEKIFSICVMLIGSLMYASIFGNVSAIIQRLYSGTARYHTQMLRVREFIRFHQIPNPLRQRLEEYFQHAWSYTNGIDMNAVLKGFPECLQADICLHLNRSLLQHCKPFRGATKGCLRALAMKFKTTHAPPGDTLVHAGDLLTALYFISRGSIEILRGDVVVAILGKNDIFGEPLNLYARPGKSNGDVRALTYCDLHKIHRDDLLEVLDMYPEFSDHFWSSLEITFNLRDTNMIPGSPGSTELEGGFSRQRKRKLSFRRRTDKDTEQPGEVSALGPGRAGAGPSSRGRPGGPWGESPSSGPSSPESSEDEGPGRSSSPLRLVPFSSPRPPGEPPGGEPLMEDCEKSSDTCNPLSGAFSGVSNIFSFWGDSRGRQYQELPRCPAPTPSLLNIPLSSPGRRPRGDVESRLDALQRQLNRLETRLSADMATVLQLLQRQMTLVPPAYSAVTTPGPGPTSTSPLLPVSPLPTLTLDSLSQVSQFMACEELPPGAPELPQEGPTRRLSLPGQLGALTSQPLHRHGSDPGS

fraction unbound [1]: 0.058
Tmax [2]: 0.3 h
CL [3]: 5%
bioavailability [4]: 79%
pIC50 [5]: < 4.70
Papp A→B at 2 h, 50 µM [6]: 1 ×10⁻⁶ cm/s
half-life [7]: 7.3 h
inhibition (INH) (Cytochrome P450 3A4): Not Active
Compound: CCOc1c([C@H](C)n2nc(C)c3c(N)ncnc32)cc(Cl)c(F)c1[C@@H]1CNC(=O)C1 [PARSACLISIB]
pIC50 [8]: 4.12
